Test results as given in patent US11208422B2, “Substituted bridged diazepane derivatives and use thereof as TASK-1 and TASK-3 inhibitors” (Bayer Pharma Aktiengesellschaft, priority 2017, dated 2021).

What was measured:
Type in all cases: cell-based
recombinant TASK-3 [1] = target: T1, recombinant TASK-3 (Homo sapiens (Human), UniProt Q9NPC2); assay: Two-electrode voltage clamp analysis of human TASK-3 channel expressed in Xenopus laevis oocytes; details: TASK-3 IC50, human TASK-3 in Xenopus laevis oocytes
T1 sequence (Q9NPC2 whole entry, the tested form may be a part): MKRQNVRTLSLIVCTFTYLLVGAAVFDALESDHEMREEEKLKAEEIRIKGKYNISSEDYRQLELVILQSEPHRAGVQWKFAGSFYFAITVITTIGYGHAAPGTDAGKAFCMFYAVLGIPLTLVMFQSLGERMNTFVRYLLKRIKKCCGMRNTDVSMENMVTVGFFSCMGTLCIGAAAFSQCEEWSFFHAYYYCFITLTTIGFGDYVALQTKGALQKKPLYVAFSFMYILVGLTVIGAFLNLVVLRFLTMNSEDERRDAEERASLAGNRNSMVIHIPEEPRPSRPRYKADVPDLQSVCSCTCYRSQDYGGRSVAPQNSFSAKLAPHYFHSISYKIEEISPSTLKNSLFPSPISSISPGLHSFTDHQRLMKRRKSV
Procedure: (§1) Xenopus laevis oocytes were selected as described elsewhere by way of illustration [Decher et al., FEBS Lett. 492, 84-89 (2001)]. […] For the electrophysiological analysis of the channel proteins expressed in the oocytes, the two-electrode voltage clamp technique [Stühmer, Methods Enzymol. 207, 319-339 (1992)] was used. The measurements were conducted as described [Decher et al., FEBS Lett. 492, 84-89 (2001)] at room temperature (21-22° C.) using a Turbo TEC 10CD amplifier (NPI), recorded at 2 kHz and filtered with 0.4 kHz. Substance administration was performed using a gravitation-driven perfusion system. Here, the oocyte is located in a measuring chamber and exposed to the solvent stream of 10 ml/min. The level in the measuring chamber is monitored and regulated by sucking off the solution using a peristaltic pump.

recombinant TASK-3 [2] = target: T1, recombinant TASK-3; assay: Inhibition of recombinant TASK-3 in stably transfected CHO cells (KCl-induced depolarization, voltage-sensitive dye, FLIPR); details: depolarization induced by 40 mM potassium chloride, some mean values from multiple determinations
Procedure: (§2) The compounds of the invention were tested here with administration of 40 mM of potassium chloride in the presence of a voltage-sensitive dye using the method described in detail in the following references [Whiteaker et al., Validation of FLIPR membrane potential dye for high-throughput screening of potassium channel modulators, J. Biomol. Screen. 6 (5), 305-312 (2001); Molecular Devices FLIPR Application Note: Measuring membrane potential using the FLIPR® membrane potential assay kit on Fluorometric Imaging Plate Reader (FLIPR®) systems, http://www.moleculardevices.com/reagents-supplies/assay-kits/ion-channels/flipr-membrane-potential-assay-kits]. The activity of the test substances was determined as their ability to inhibit a depolarization induced in the recombinant cells by 40 mM potassium chloride. The concentration which can block half of this depolarization is referred to as IC50.

recombinant TASK-1 [3] = target: T2, recombinant TASK-1 (Homo sapiens (Human), UniProt O14649); assay: Two-electrode voltage clamp analysis of human TASK-1 channel expressed in Xenopus laevis oocytes; details: TASK-1 IC50, human TASK-1 in Xenopus laevis oocytes
T2 sequence (O14649 whole entry): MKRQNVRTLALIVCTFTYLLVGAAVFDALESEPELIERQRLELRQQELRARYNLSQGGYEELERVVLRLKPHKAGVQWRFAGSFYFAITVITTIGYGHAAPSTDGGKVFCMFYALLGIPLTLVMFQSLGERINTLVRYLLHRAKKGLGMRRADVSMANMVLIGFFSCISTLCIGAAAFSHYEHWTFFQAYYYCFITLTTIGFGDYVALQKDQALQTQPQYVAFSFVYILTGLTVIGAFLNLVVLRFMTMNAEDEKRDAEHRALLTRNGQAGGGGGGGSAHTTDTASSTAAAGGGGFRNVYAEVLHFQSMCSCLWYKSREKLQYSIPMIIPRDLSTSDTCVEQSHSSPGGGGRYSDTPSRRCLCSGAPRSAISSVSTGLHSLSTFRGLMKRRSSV
Procedure: as §1

recombinant TASK-1 [4] = target: T2, recombinant TASK-1; assay: Inhibition of recombinant TASK-1 in stably transfected CHO cells (KCl-induced depolarization, voltage-sensitive dye, FLIPR); details: depolarization induced by 40 mM potassium chloride, some mean values from multiple determinations
Procedure: as §2

Row | SMILES | IC50 (recombinant TASK-3 [1]) [nM] | IC50 (recombinant TASK-3 [2]) [nM] | IC50 (recombinant TASK-1 [3]) [nM] | IC50 (recombinant TASK-1 [4]) [nM]
1 | COc1ccc(F)c(C(=O)N2C3CCN(Cc4c(-c5ccc(Cl)cc5)nc5ccccn45)CC2COC3)n1 (single isomer, unassigned) [Example 11] | 4.8 ± 0.4 | 1.1 | 11.4 ± 2.2 | 113
2 | COc1ccc(F)c(C(=O)N2C3CCN(Cc4c(-c5ccc(Cl)cc5)nc5ccccn45)CC2COC3)n1 (single isomer, unassigned) [Example 12] | 13 ± 0.9 | 2.5 | 17.6 ± 2.2 | 60.5
3 | COc1ccc(F)c(C(=O)N2C3CCC2CN(Cc2c(-c4ccc(Cl)cn4)nc4ccccn24)CC3)n1 (single isomer, unassigned) [Example 15, [3-{[2-(5-Chloropyridin-2-yl)imidazo[1,2-a]pyridin-3-yl]methyl}-3,9-diazabicyclo[4.2.1]non-9-yl](3-fluoro-6-methoxypyridin-2-yl)methanone] | 15.5 ± 1.5 | 7.3 | 7.54 ± 1.4 | 250
4 | O=C(c1cccc(OC(F)F)n1)N1CCC2CCC1CN2Cc1c(-c2ccc(Cl)cc2)nc2ncccn12 (stereo not drawn) [Example 67] |  | 370 |  | 3400
5 | O=C(c1cccc(OC(F)F)n1)N1CCC2CCC1CN2Cc1c(-c2ccc(Cl)cc2)nc2ncccn12 (stereo not drawn) [Example 68] |  | 31 |  | 230
6 | COc1ccc(F)c(C(=O)N2C3CCC2CN(Cc2c(-c4ccc(C(C)C)cc4)nc4ncccn24)CC3)n1 (stereo not drawn) [Example 102] |  | 36 |  | 170
7 | COc1ccc(F)c(C(=O)N2C3CCC2CN(Cc2c(-c4ccc(C(C)C)cc4)nc4ncccn24)CC3)n1 (stereo not drawn) [Example 103] |  | 200 |  | 1400
8 | COc1cccc(C(=O)N2C3CCC2CN(Cc2c(-c4ccc(C(C)C)cc4)nc4ncccn24)CC3)n1 (stereo not drawn) [Example 104] |  | 31 |  | 600
9 | COc1cccc(C(=O)N2C3CCC2CN(Cc2c(-c4ccc(C(C)C)cc4)nc4ncccn24)CC3)n1 (stereo not drawn) [Example 105] |  | 370 |  | 3700
